Results reported in patent US20260000656A1, “ANTIFUNGAL AGENTS WITH ENHANCED ACTIVITY IN ACIDIC PH” (Scynexis, Inc., priority 2017, published 2026).
Values after ≈ are worked out from the molar mass of the structure shown. Where two headings read alike, the source gives them in different places. Numbered stars: 1 amine (or outer) side, 2 acyl side, 3 side chain; on linkers, the order of the positions; unused ones are H or OH. Bridge positions count the residues as written; N and C are the ends. Square brackets hold non-standard residues; d marks the D form. Peptide text beside a SMILES is read from it. * marks the point of attachment. hTyr(3S-OH,4S-OH,3'-OSO3H) = N[C@H](C(=O)O)[C@H](O)[C@@H](O)c1ccc(O)c(OS(=O)(=O)O)c1; Orn(4R-OH,5R-OH) = O=C([C@H](C[C@@H](O)[C@@H](O)N[*:3])N[*:1])[*:2]; Pro(3S-OH,4S-Me) = C[C@H]1CN[C@H](C(=O)O)[C@H]1O; X1 = CCCCCOc1ccc(-c2cc(-c3ccc(C(=O)*)cc3)no2)cc1; Gln(3R-OH) = NC(=O)C[C@@H](O)[C@H](N)C(=O)O; Hyp = O=C(O)[C@@H]1C[C@@H](O)CN1

Tested on: C. glabrata isolates
Assay: Broth microdilution susceptibility (CLSI M27-A3) at different medium pH
Format: cell-based, Candida glabrata
Conditions: for MIC range: 50% inhibition, 10 vaginal isolates; for MIC50 / MIC90 / MIC: Nakaseomyces glabratus, 24 h
Method: Ten strains each of C. glabrata and C. albicans vaginal isolates were tested. The strains were obtained from recent clinical trial patients with vulvovaginal candidiasis (VVC) prior to treatment. Candida strains were obtained from the Mycology Reference Library (MRL) at Case Western Reserve University School of Medicine, Ohio, United States.
Susceptibility testing was performed using a broth microdilution method, according to CLSI M27-A3 guidelines (CLSI. 2008. Reference Method for Broth Dilution Antifungal Susceptibility Testing of Yeasts; Approved Standard—Third Edition. Clinical and Laboratory Standards Institute, CLSI document M27-A3). Antifungals and concentrations tested were SCY-078 and micafungin (both at concentrations within the range of 0.015 to 8 μg/ml) and fluconazole (at concentrations within the range of 0.125 to 64 μg/ml). A 0.1-ml C. albicans and C. glabrata inoculum of 0.5-2.5×10^3 blastospores/ml in RPMI 1640 medium was added to each microdilution well. ATCC strains of Candida parapsilosis and Candida krusei QC isolates were also included concurrently to ensure quality control. Antifungal susceptibility testing was carried out for each isolate in RPMI 1640 at pH 7 (to mimic RPMI medium used in testing the susceptibility of yeast by the CLSI M-27A3 document), pH 5.7, and pH 4.5 (to mimic the pH of the vaginal cavity) by adjusting the pH of the media using NaOH or HCl. […] Agents Chemother., 43: 1383-1386 (1999).
[…] SCY-078 powder was manufactured by Avista, Laboratories, NC. Micafungin and fluconazole were sourced from LGM Pharma.

CCCCCOc1ccc(-c2cc(-c3ccc(C(=O)N[C@H]4C[C@@H](O)[C@@H](O)NC(=O)[C@@H]5[C@@H](O)[C@@H](C)CN5C(=O)[C@H]([C@H](O)CC(N)=O)NC(=O)[C@H]([C@H](O)[C@@H](O)c5ccc(O)c(OS(=O)(=O)O)c5)NC(=O)[C@@H]5C[C@@H](O)CN5C(=O)[C@H]([C@@H](C)O)NC4=O)cc3)no2)cc1 [Micafungin, reference compound] (X1-[Orn(4R-OH,5R-OH)]T[Hyp][hTyr(3S-OH,4S-OH,3'-OSO3H)][Gln(3R-OH)][Pro(3S-OH,4S-Me)]; lactam 1-C)
MIC range (pH 4.5, 24 h): 0.25 µg/mL (≈ 0.197 µM) | MIC range (pH 5.72, 24 h): 0.25 µg/mL (≈ 0.197 µM) | MIC range (pH 7.0, 24 h): 0.25 to 0.5 µg/mL | MIC50 (pH 4.5): 0.25 µg/mL (≈ 0.197 µM) | MIC90 (pH 4.5): 0.25 µg/mL (≈ 0.197 µM) | MIC (pH 4.5, read-out: MIC (50% inhibition), C. glabrata MRL 32075, pH 4.5, 24 hours): 0.25 µg/mL (≈ 0.197 µM) | MIC (pH 4.5, read-out: MIC (50% inhibition), C. glabrata MRL 32232, pH 4.5, 24 hours): 0.25 µg/mL (≈ 0.197 µM) | MIC (pH 4.5, read-out: MIC (50% inhibition), C. glabrata MRL 32626, pH 4.5, 24 hours): 0.25 µg/mL (≈ 0.197 µM) | MIC (pH 4.5, read-out: MIC (50% inhibition), C. glabrata MRL 32993, pH 4.5, 24 hours): 0.25 µg/mL (≈ 0.197 µM) | MIC (pH 4.5, read-out: MIC (50% inhibition), C. glabrata MRL 33204, pH 4.5, 24 hours): 0.25 µg/mL (≈ 0.197 µM) | MIC (pH 4.5, read-out: MIC (50% inhibition), C. glabrata MRL 33960, pH 4.5, 24 hours): 0.25 µg/mL (≈ 0.197 µM) | MIC (pH 4.5, read-out: MIC (50% inhibition), C. glabrata MRL 33961, pH 4.5, 24 hours): 0.25 µg/mL (≈ 0.197 µM) | MIC (pH 4.5, read-out: MIC (50% inhibition), C. glabrata MRL 34339, pH 4.5, 24 hours): 0.25 µg/mL (≈ 0.197 µM) | MIC (pH 4.5, read-out: MIC (50% inhibition), C. glabrata MRL 34407, pH 4.5, 24 hours): 0.25 µg/mL (≈ 0.197 µM) | MIC (pH 4.5, read-out: MIC (50% inhibition), C. glabrata MRL 34576, pH 4.5, 24 hours): 0.25 µg/mL (≈ 0.197 µM) | MIC50 (pH 5.72): 0.25 µg/mL (≈ 0.197 µM) | MIC90 (pH 5.72): 0.25 µg/mL (≈ 0.197 µM) | MIC (pH 5.72, read-out: MIC (50% inhibition), C. glabrata MRL 32075, pH 5.72, 24 hours): 0.25 µg/mL (≈ 0.197 µM) | MIC (pH 5.72, read-out: MIC (50% inhibition), C. glabrata MRL 32232, pH 5.72, 24 hours): 0.25 µg/mL (≈ 0.197 µM) | MIC (pH 5.72, read-out: MIC (50% inhibition), C. glabrata MRL 32626, pH 5.72, 24 hours): 0.25 µg/mL (≈ 0.197 µM) | MIC (pH 5.72, read-out: MIC (50% inhibition), C. glabrata MRL 32993, pH 5.72, 24 hours): 0.25 µg/mL (≈ 0.197 µM) | MIC (pH 5.72, read-out: MIC (50% inhibition), C. glabrata MRL 33204, pH 5.72, 24 hours): 0.25 µg/mL (≈ 0.197 µM) | MIC (pH 5.72, read-out: MIC (50% inhibition), C. glabrata MRL 33960, pH 5.72, 24 hours): 0.25 µg/mL (≈ 0.197 µM) | MIC (pH 5.72, read-out: MIC (50% inhibition), C. glabrata MRL 33961, pH 5.72, 24 hours): 0.25 µg/mL (≈ 0.197 µM) | MIC (pH 5.72, read-out: MIC (50% inhibition), C. glabrata MRL 34339, pH 5.72, 24 hours): 0.25 µg/mL (≈ 0.197 µM) | MIC (pH 5.72, read-out: MIC (50% inhibition), C. glabrata MRL 34407, pH 5.72, 24 hours): 0.25 µg/mL (≈ 0.197 µM) | MIC (pH 5.72, read-out: MIC (50% inhibition), C. glabrata MRL 34576, pH 5.72, 24 hours): 0.25 µg/mL (≈ 0.197 µM) | MIC50 (pH 7): 0.25 µg/mL (≈ 0.197 µM) | MIC90 (pH 7): 0.5 µg/mL (≈ 0.394 µM) | MIC (pH 7, read-out: MIC (50% inhibition), C. glabrata MRL 32075, pH 7.0, 24 hours): 0.25 µg/mL (≈ 0.197 µM) | MIC (pH 7, read-out: MIC (50% inhibition), C. glabrata MRL 32232, pH 7.0, 24 hours): 0.5 µg/mL (≈ 0.394 µM) | MIC (pH 7, read-out: MIC (50% inhibition), C. glabrata MRL 32626, pH 7.0, 24 hours): 0.5 µg/mL (≈ 0.394 µM) | MIC (pH 7, read-out: MIC (50% inhibition), C. glabrata MRL 32993, pH 7.0, 24 hours): 0.25 µg/mL (≈ 0.197 µM) | MIC (pH 7, read-out: MIC (50% inhibition), C. glabrata MRL 33204, pH 7.0, 24 hours): 0.25 µg/mL (≈ 0.197 µM) | MIC (pH 7, read-out: MIC (50% inhibition), C. glabrata MRL 33960, pH 7.0, 24 hours): 0.5 µg/mL (≈ 0.394 µM) | MIC (pH 7, read-out: MIC (50% inhibition), C. glabrata MRL 33961, pH 7.0, 24 hours): 0.25 µg/mL (≈ 0.197 µM) | MIC (pH 7, read-out: MIC (50% inhibition), C. glabrata MRL 34339, pH 7.0, 24 hours): 0.25 µg/mL (≈ 0.197 µM) | MIC (pH 7, read-out: MIC (50% inhibition), C. glabrata MRL 34407, pH 7.0, 24 hours): 0.25 µg/mL (≈ 0.197 µM) | MIC (pH 7, read-out: MIC (50% inhibition), C. glabrata MRL 34576, pH 7.0, 24 hours): 0.25 µg/mL (≈ 0.197 µM)
